Key:
[1] = system: AOM/DSS colon cancer model; assay: AOM/DSS colon cancer model, Experiment 1 (body weight, anal prolapse, organ coefficient, colon and tumor indexes); format: in vivo, Balb/c mice
Procedure: (§1) Experimental method: 90 Balb/c mice of 6-8 weeks were purchased from the Experimental Animal Center in Guangzhou University of Chinese Medicine, weighed about 18-22 g, and subjected to adaptive feeding for 10 days. Modeling was divided into three stages. In the first stage, except for the normal group of animals being given saline injection, each of the other animals were intraperitoneally injected with a carcinogen AOM (10 mg/kg), and given free access to 2% DSS water from the next day for 7 days, and then given access to replaced regular drinking water for 14 days. In the second stage, the animals were given free access to 2% DSS water for 10 days, and then given access to replaced regular drinking water for 14 days. In the third stage, the animals were given free access to 2% DSS water for 10 days, and then given access to replaced regular drinking water for 11 days. The normal group was given access to regular drinking water throughout the experiment. The diet, water drinking and body weights of the animals were recorded daily and DAI scores were made, and the animals were killed and harvested at the 10th week. In this experiment, the animals were divided into groups and administrated on the first day of a modeling period of the second stage, and the total number of groups was set to 5 groups. The first group was a blank control group (Normal), in which a total of 12 animals were given access to drinking water by gavage; the second group was a model group (AOM/DSS), in which a total of 22 animals were given access to drinking water by gavage; the third group was a positive drug control group (5-ASA+AOM/DSS), in which a total of 22 animals were given access to 100 mg/kg of mesalazine (5-ASA) by gavage; and the fourth and fifth groups were monotropein-intervening groups (Mo+AOM/DSS), which were a high dose of 8 mg/kg and a low dose of 2 mg/kg, respectively, with 17 animals in each group. Dosing was conducted daily until dissection.
(1) The calculation formula of a DAI score: DAI value=(score of weight loss+score of stool trait+score of blood in stool)/3.
(§2) The animals were anesthetized and harvested, and the liver, spleen, thymus and testis were weighed to calculate the organ coefficient; the colon tissue was taken, measured with a ruler for the length, and measured with a vernier caliper for the thickness, and the number and size of tumors and degree of colonic ulceration and adhesion were recorded; respective tissues were cut into small pieces and fixed, and the remaining tissues were frozen and stored; and the fixed tissues were used for HE staining and immunohistochemistry.

IL-6, IL-10, IL-1β = assay: Determination of cytokines in intestinal tumor tissues by Elisa; format: in vivo, Balb/c mice; settings: vs model group
Procedure: as §1, with “The first group was a blank control group (Normal), in which a total of 12 animals were given access to drinking water by gavage; the second group was a model group (AOM/DSS), in which a total of 22 animals were given access to drinking water by gavage; the third group was a positive drug control group (5-ASA+AOM/DSS), in which a total of 22 animals were given access to 100 mg/kg of mesalazine (5-ASA) by gavage; and the fourth and fifth groups were monotropein-intervening groups (Mo+AOM/DSS), which were a high dose of 8 mg/kg and a low dose of 2 mg/kg, respectively, with 17 animals in each group. Dosing was conducted daily until dissection.” left out
The intestinal tumor tissues frozen and stored at −80° C. were taken and homogenized, and the homogenate was determined with a BCA kit for the total protein concentration thereof. The homogenate was diluted by 20 times and then determined by Elisa method for cytokines: IL-6, IL-10, and IL-1β. […]

[2] = system: peripheral blood macrophages; assay: Typing of peripheral blood macrophages by flow cytometry; format: in vivo, Balb/c mice; settings: compared with normal group
Procedure: as §1, with “The first group was a blank control group (Normal), in which a total of 12 animals were given access to drinking water by gavage; the second group was a model group (AOM/DSS), in which a total of 22 animals were given access to drinking water by gavage; the third group was a positive drug control group (5-ASA+AOM/DSS), in which a total of 22 animals were given access to 100 mg/kg of mesalazine (5-ASA) by gavage; and the fourth and fifth groups were monotropein-intervening groups (Mo+AOM/DSS), which were a high dose of 8 mg/kg and a low dose of 2 mg/kg, respectively, with 17 animals in each group.” left out, “dissection. […]” for “dissection.”

VDR = assay: Detection of acting target of monotropein: VDR expression (Western blot, immunohistochemistry); format: in vivo, Balb/c mice
Procedure: Experimental method: 90 Balb/c mice of 6-8 weeks were purchased from the Experimental Animal Center in Guangzhou University of Chinese Medicine, weighed about 18-22 g, and subjected to adaptive feeding for 10 days. Modeling was divided into three stages. In the first stage, except for the normal group of animals being given saline injection, each of the other animals were intraperitoneally injected with a carcinogen AOM (10 mg/kg), and given free access to 2% DSS water from the next day for 7 days, and then given access to replaced regular drinking water for 14 days. […] The diet, water drinking and body weights of the animals were recorded daily and DAI scores were made, and the animals were killed and harvested at the 10th week. […]
as §2
(§3) A potential acting target of monotropein for interfering with the colon cancer was detected.

SRC = assay: Detection of acting target of monotropein: SRC (Western blot); format: in vivo, Balb/c mice; settings: colon of AOM/DSS mice
Procedure: (§4) Experimental method: 90 Balb/c mice of 6-8 weeks were purchased from the Experimental Animal Center in Guangzhou University of Chinese Medicine, weighed about 18-22 g, and subjected to adaptive feeding for 10 days. Modeling was divided into three stages. In the first stage, except for the normal group of animals being given saline injection, each of the other animals were intraperitoneally injected with a carcinogen AOM (10 mg/kg), and given free access to 2% DSS water from the next day for 7 days, and then given access to replaced regular drinking water for 14 days. In the second stage, the animals were given free access to 2% DSS water for 10 days, and then given access to replaced regular drinking water for 14 days. In the third stage, the animals were given free access to 2% DSS water for 10 days, and then given access to replaced regular drinking water for 11 days. The normal group was given access to regular drinking water throughout the experiment. The diet, water drinking and body weights of the animals were recorded daily and DAI scores were made, and the animals were killed and harvested at the 10th week. […]
as §3

Aktl = assay: Detection of acting target of monotropein: Aktl (Western blot); format: in vivo, Balb/c mice; settings: colon of AOM/DSS mice
Procedure: as §4, §3

HT29 colon cancer cells = assay: In vitro proliferation inhibition of HT29 colon cancer cells; format: cell-based; settings: concentration of 1 uM; compared with blank control group
Procedure: (§5) The HT29 cells were thawed, and cultured in a changed medium after 24 hours. Medium preparation method: 6% serum, 1% of a bispecific antibody+a 1640 basal medium. After grown to confluent, the cells were digested and subcultured to expand the number of cells. When reached the required amount, the cells were digested by trypsin, centrifuged, and resuspended in PBS to prepare a cell suspension of 1×10^8 cells/ml. A part of the cell suspension was added with the monotropein, desacetyl asperulosidic acid, asperuloside, and asperulosidic acid respectively, and the inhibition rate (%) of tumor cell proliferation by each of these different compounds was examined.

[3] = system: SW1990 breast cancer cells; assay: In vitro proliferation inhibition of SW1990 breast cancer cells; format: cell-based; settings: concentration of 1 uM; compared with blank control group
Procedure: as §5, with “SW1990” for “HT29”

[4] = system: SMB-231 pancreatic cancer cells; assay: In vitro proliferation inhibition of SMB-231 pancreatic cancer cells; format: cell-based; settings: concentration of 1 uM; compared with blank control group
Procedure: as §5, with “SMB-231 pancreatic cancer” for “HT29”

O=C(O)C1=CO[C@@H](O[C@@H]2O[C@H](CO)[C@@H](O)[C@H](O)[C@H]2O)[C@H]2[C@@H]1C=C[C@]2(O)CO [monotropein]
spleen enlargement caused by AOM/DSS modeling (organ coefficient) ([1]; monotropein high (8 mg/kg) and low (2 mg/kg) doses, 5-ASA 100 mg/kg): significantly reduce the spleen enlargement
anal prolapse occurrence at the third stage of modeling ([1]; per group, monotropein 8 mg/kg and 2 mg/kg groups (17 animals each), 5-ASA 100 mg/kg (22 animals), gavage daily, model group 8-12): 2-6 animals
level of IL-10 in tumor tissues (IL-6, IL-10, IL-1β; high-dose monotropein (8 mg/kg) and positive drug 5-ASA (100 mg/kg)): no significant differences
level of IL-10 in tumor tissues (IL-6, IL-10, IL-1β; low-dose monotropein (2 mg/kg)): extremely significantly up-regulated
M1/M2 ratio of peripheral blood macrophages [2]: up-regulating trend
expression of VDR, immunohistochemistry (VDR; colon cancerous sites of AOM/DSS mice): up-regulated the expression of VDR
expression of intestinal VDR, Western blot (VDR; colon of AOM/DSS mice): mainly promoted the expression of intestinal VDR
effect on SRC, Western blot (SRC): no significant effect
effect on Aktl, Western blot (Aktl): no significant effect
proliferation of HT29 colorectal cancer cells in vitro (HT29 colon cancer cells): significantly inhibit the proliferation
proliferation of SW1990 cells in vitro [3]: significantly inhibit the proliferation
proliferation of SMB-231 pancreatic cancer cells in vitro [4]: significantly inhibit the proliferation
